Calls of active or inactive are those of the source. The rule behind the calls is not given here.
Experiments:
A549 = experiment: Induction of phospholipidosis in NBD-PE-treated human A549 cells at 10 uM incubated for 24 hrs by imaging based analysis; type: functional, cell-based
Ebolavirus = experiment: Antiviral activity against recombinant Ebola virus Mayinga expressing GFP infected in human HeLa cells with ATP6V0a2 KO assessed as reduction in viral entry into cells pretreated for 1 hr followed by viral infection measured after 24 to 48 hrs by imaging analysis; type: functional, organism-based; settings: Orthoebolavirus
HEK293 = experiment: Cytotoxicity against HEK293 cells incubated for 72 hrs by MTT assay; type: toxicity, cell-based; settings: human, hek293, 72 h
[1] = Oral bioavailability in ICR mouse at 75 mg/kg by LC-MS/MS analysis; type: ADME, organism-based; settings: in vivo

Row | Structure (SMILES) | Activity (A549) | EC50 (Ebolavirus) [nM] | CC50 (HEK293) [nM] | bioavailability [1] [%]
1 | COc1cc2c(O)c3c(c(-c4ccc5c(c4)OCO5)c2cc1OC)C(=O)OC3 [DIPHYLLIN] | inactive | 1090 | > 80000 | 
2 | COc1cc2c(O[C@@H]3O[C@H](CO)[C@@H]4OC(C)(C)O[C@@H]4[C@H]3O)c3c(c(-c4ccc5c(c4)OCO5)c2cc1OC)C(=O)OC3 |  |  |  | 2.5
